# Assay results from US20240415836A1, “COMPOSITION COMPRISING TWO ENZYME INHIBITORS TARGETING TWO DIFFERENT CONFORMATIONS OF AN ENZYME” (University College Dublin, priority 2018, published 2024).
# Where two headings read alike, the source gives them in different places.
# Assays:
# [1] = system: DND41 (T-ALL leukaemia) cells; experiment: Proliferation of DND41 cells, 4 days; assay type: cell-based; details: doses exceeding 10 μM of each drug, alone and in combination
# Description: Inventors' model predictions were corroborated by cell line experiments where proliferation responses of T-ALL cells (DND41) to Type I inhibitor Ruxolitinib, Type II inhibitor CHZ868, and their combination were measured (FIG. 17). […] However, the inventors observed saturation of inhibition of cellular proliferation. […] This incomplete inhibition of proliferation is explained by activation of STAT family of transcription factors by alternative signalling pathways.
# RAF = details: literature values; cited from earlier work
# [2] = system: HER2-positive breast cancer cells; experiment: HER2-positive breast cancer cells stimulated with Heregulin (HRG); assay type: cell-based
# Description: Thus, in order to model conditions of resistance to ErbB inhibitors, all proliferation assays were performed in the presence of HRG.
# [3] = system: ERK signaling, MEL-JUSO cells; experiment: ERK signaling in growing MEL-JUSO cells, Western Blot, 1 hr; assay type: cell-based; details: trametinib at doses that do not fully inhibit ERK activation
# Description: Cells were transferred on ice, scraped using lysis buffer (10 mM Tris pH 7.5, 150 mM NaCl, and 0.5% (v/v) NP-40) complemented with protease and phosphatase inhibitors, and the cellular debris removed from the lysate by centrifugation at 10,000×g at 4° C. for 10 min. […] Lysates were then resolved by SDS PAGE (12%) and transferred on a polyvinylidene difluoride membrane (Millipore). Protein visualization was performed in combination with horseradish peroxidase-conjugated secondary antibodies (Cell Signalling Technologies) and the enhanced chemiluminescence system (GE Healthcare) using the Advanced Molecular Vision Chemi Image Unit associated with ChemoStar Imager (INTAS Science Imaging Instruments GmbH) for the following antibodies: Polyclonal rabbit anti-human mitogen-activated protein (MAP) kinase [extra-cellular signal-regulated kinase (ERK) 1 and ERK2] antibody (Sigma), monoclonal mouse anti-human MAP kinase activated (diphosphorylated ERK1 and ERK2) antibody (Sigma).
# [4] = system: ERK signaling, MEL-JUSO cells; experiment: ERK signaling (ppERK) in growing MEL-JUSO cells, MESOSCALE system, 24 hr; assay type: cell-based; details: applied separately, high doses (12 μM), following paradoxical activation
# Description: (§1) Cell lines were either purchased from ATCC (SKMEL2, A375) or DSMZ (MEL-JSUO). […] All cells were grown in RPMI (Gibco) supplemented with 2 mM L-glutamine and 10% (v/v) fetal bovine serum in a humidified atmosphere of 5% CO2 at 37° C. Cells were seeded in 12-well plates (Greiner CELLSTAR dishes) at the density of 10^5 cells per well. After reaching sufficient confluency, cells were treated with different concentrations of inhibitors and DMSO as control. To prepare the protein lysates, plates were transferred on ice, washed with ice-cold PBS and harvested by scraping in specific ELISA buffers as indicated below.
# (§2) Briefly, following the addition of complete MSD lysis buffer and scraping the cells from the surface of the dish, the cellular debris was removed from the lysate by centrifugation at 10000×g at 4° C. for 10 min. Protein concentration was determined using the BCA test according to the manufacturer's instructions (Pierce™ BCA Protein Assay Kit).
# all RAF isoforms = details: literature (King 2006; Wan 2004; Wilhelm 2004); cited from earlier work
# MEL-JUSO cells = experiment: Cell proliferation assay (MTS) in MEL-JUSO cells; assay type: cell-based; details: Homo sapiens, read-out: GI50 (a dose inhibiting cell proliferation by 50%)
# Description: Cell proliferation was analyzed by CellTiter 96 Aqueous One Solution Cell Proliferation Assay (MTS; Promega) according to manufacturer's instructions. For this, 5,000 cells were plated per well of 96-well tissue culture plates (in 200 μL of medium).
# [5] = system: ERK signaling, MEL-JUSO cells; experiment: ERK signaling (ppERK) in growing MEL-JUSO cells, LUMINEX xMAP, 24 hr; assay type: cell-based; details: extending into the micromolar range
# Description: Following the addition of complete Luminex lysis buffer and scraping the cells from the surface of the dish, the cellular debris was removed from the lysate by centrifugation at 10000×g at 4° C. for 10 min. The pellet was discarded and the protein concentration of lysates was adjusted to 0.3 μg/μL using the BCA assay kit. xMAP assays were performed on a Luminex-3D platform (Luminex, Austin, TX) using commercially available phosphoprotein antibody-coupled beads (ProtATonce, Athens, Greece). […] Additionally, for loading control the levels of glyceraldehyde 3-phosphate dehydrogenase (GAPDH) protein were analyzed in a separate setting.
# [6] = system: MEK signaling, A375 (WT RAS, BRAF^V600E/V600E) cells; experiment: cells; details: Homo sapiens, A-375, 1 h, read-out: IC50, MEK signaling response
# Description: as §1, §2
smiles,measurement,setting,value
CC(=O)Nc1cc(Oc2ccc3c(nc(Nc4ccc(F)cc4F)n3C)c2C)ccn1 [CHZ868],plateau level of suppression of cellular proliferation,[1],~60%
COC(=O)N[C@@H](C)CNc1nccc(-c2cn(C(C)C)nc2-c2cc(Cl)cc(NS(C)(=O)=O)c2F)n1 [LGX818],1/koff,RAF,≥ 2 h
CS(=O)(=O)CCNCc1ccc(-c2ccc3ncnc(Nc4ccc(OCc5cccc(F)c5)c(Cl)c4)c3c2)o1 [Lapatinib],sensitivity of cells after stimulation with Heregulin (HRG),[2],resistant to Lapatinib treatment
N#CC[C@H](C1CCCC1)n1cc(-c2ncnc3[nH]ccc23)cn1 [Ruxolitinib],plateau level of suppression of cellular proliferation,[1],~60%
CC(C)(C)c1nc(-c2cccc(NS(=O)(=O)c3c(F)cccc3F)c2F)c(-c2ccnc(N)n2)s1 [dabrafenib],effect on ERK signaling of addition to trametinib,[3],increases rather than decreases ERK signaling
CNC(=O)c1cc(Oc2ccc(NC(=O)Nc3ccc(Cl)c(C(F)(F)F)c3)cc2)ccn1 [sorafenib],ppERK response,[4],could only slightly inhibit ppERK
same,inhibition of RAF isoforms in in vitro kinase assays,all RAF isoforms,low nM range
same,GI50,MEL-JUSO cells; MEL-JUSO,8 µM
same,ERK response to each inhibitor applied separately,[5],marked paradoxical ERK activation
same,IC50,[6],44 µM
CCCS(=O)(=O)Nc1ccc(F)c(C(=O)c2c[nH]c3ncc(-c4ccc(Cl)cc4)cc23)c1F [vemurafenib],GI50,"MEL-JUSO cells; MEL-JUSO cells, applied individually",32 µM
